The record followed here is ChEMBL document CHEMBL5338766, “X-ray Crystal Structure-Guided Discovery of Novel Indole Analogues as Colchicine-Binding Site Tubulin Inhibitors with Immune-Potentiating and Antitumor Effects against Melanoma” (J Med Chem, 2023).

Active and inactive are the calls of the source. The calls are words filed in the database; no cut-off is given here.

For data set [1], the system named is HepG2. Briefly: Induction of apoptosis in human HepG2 cells assessed as late apoptotic cells at 1 nM incubated for 48 hrs by Annexin V-FITC/PI staining based flow cytometric analysis (reference value: 4.96 %). The data set is classed as functional. (In general: In flow cytometry, cells or beads pass a laser one at a time.)
The nature of data set [2]: Toxicity in C57 mouse implanted with mouse B16-F10 cells assessed as pathological changes in heart at 5 mg/kg, ip administered every day for 14 days by H&E staining based microscopic analysis. The data set is classed as organism-based. The following applies: in vivo, 336 h, time 14 day.
Data set [3] is described as follows: Tmax in Sprague-Dawley rat at 2 mg/kg, iv measured upto 12 hrs by UPLC-MS/ESI analysis. The following applies: in vivo. The data set is classed as ADME, organism-based.
The subject of data set [4] is B16-F10. Briefly: Antitumor activity against mouse B16-F10 cells implanted in C57 mouse assessed as reduction in tumor weight at 2.5 mg/kg, ip administered every day for 14 days in the presence of NP19. The data set is classed as functional, organism-based. The following applies: time 14.0 day.
Data set [5] can be described thus: MRT(0 to infinity) in Sprague-Dawley rat at 2 mg/kg, iv measured upto 12 hrs by UPLC-MS/ESI analysis. The data set is classed as ADME, organism-based. The following applies: in vivo.
The nature of data set [6]: AUC (0 to infinity) in Sprague-Dawley rat at 20 mg/kg, po measured upto 12 hrs by UPLC-MS/ESI analysis. The data set is classed as ADME, organism-based. Further details: dose 20 mg/kg, time < 12 hrs, route po. The following applies: in vivo.
Data set [7] can be described thus: MRT (0 to infinity) in Sprague-Dawley rat at 20 mg/kg, po measured upto 12 hrs by UPLC-MS/ESI analysis. The data set is classed as ADME, organism-based. Particulars: in vivo.
In data set [8] the test system is B16-F10. Briefly: Antitumor immunity in C57 mouse implanted with mouse B16-F10 cells assessed as increase in CD3+ CD8+ cytotoxic T cells in tumor at 2.5 mg/kg, ip administered every day for 14 days in the presence of NP19 by flow cytometric analysis (reference value: 0.340%). The data set is classed as functional. The following applies: time 14 day.
Data set [9] concerns HepG2. Briefly: Cell cycle arrest in human HepG2 cells assessed as accumulation of cells at G1 phase at 1 nM incubated for 48 hrs by RNaseA/PI staining based flow cytometric analysis (reference value: 56.11%). The data set is classed as functional.

For `COc1cc(-c2nccc3[nH]c(-c4cccc5c4ccn5C)nc23)cc(OC)c1OC`, the Activity was 8.87% in data set [1], “Non-Toxic” in data set [2], 3.34% in [8] and 41.37% in [9]. The Tmax in [3] was found to be 4.98 min. In data set [4], the outcome was Active. Further, the MRT inf in data set [5] came to 1.86 h; in data set [7], 3.24 h. The molecule also displayed an AUC(0-inf) in data set [6] of 3380 ng·h/mL.

The term Tmax denotes the time at which the peak concentration occurs. By MRT inf is commonly meant the average time that molecules of a dose stay in the body. For orientation: AUC(0-inf) means total exposure, with the tail of the curve extrapolated. Low readings indicate less exposure, high ones more exposure.
